These results are taken from patent US8481536B2, “Benzotriazine inhibitors of kinases” (TargeGen, Inc., priority 2004, dated 2013).

The target of one test is Pdgfrβ (Homo sapiens (Human), UniProt P09619). Briefly: Pdgfrβ kinase inhibition in vitro (luciferase-based residual ATP). Format: biochemical. As to conditions: 500 nM ATP, PTK2 peptide, 60 minutes at 37 C; read-out: PDGFR IC50. On the procedure:
(§1) The ability of compounds of the present invention to inhibit the activity of three groups of kinases was tested. Kinases tested included the src family (primarily src and yes), some angiogenic growth factor receptors (Fgfr1, Vegfr, and Pdgfrβ) and the ephrin, EphB4. All kinase reactions were conducted in 96-well plates with a final reaction volume of 50 ul.
Pdgfrβ (0.16 ug/well, Panvera/Invitrogen) 500 nM ATP and the PTK2 peptide (700 uM) were combined with compound and reaction buffer as noted above for src. The reaction was incubated for 60 minutes at 37 C, and the residual ATP concentration was determined using the luciferase-based technique also noted above.
(§2) The test results for inhibition of Src kinase are presented in Table 1, and the test results for inhibition of some other kinases (i.e., Yes, EphB4, and Pdgfrβ) are presented in Table 2.

The next test concerns the target Recombinant human c-Src (Homo sapiens (Human), UniProt P12931). The experiment in a line: Src kinase inhibition in vitro (luciferase-based residual ATP, KinaseGlo). The format is biochemical. The conditions noted are these: ATP 3 μM, PTK2 substrate, 90 minutes at room temperature. As for the experimental part: as §1
After reacting for about 90 minutes at room temperature, residual ATP was determined using a luciferase-based assay (KinaseGlo, Promega Corp.) as a measure of kinase activity. Data from four wells were then averaged and used to determine IC50 values for the test compounds (Prism software package, GraphPad Software, San Diego Calif.).
as §2
A general note: In Kinase-Glo more light means more ATP remaining.

Sequence of Recombinant human c-Src (P12931 whole entry, looked up): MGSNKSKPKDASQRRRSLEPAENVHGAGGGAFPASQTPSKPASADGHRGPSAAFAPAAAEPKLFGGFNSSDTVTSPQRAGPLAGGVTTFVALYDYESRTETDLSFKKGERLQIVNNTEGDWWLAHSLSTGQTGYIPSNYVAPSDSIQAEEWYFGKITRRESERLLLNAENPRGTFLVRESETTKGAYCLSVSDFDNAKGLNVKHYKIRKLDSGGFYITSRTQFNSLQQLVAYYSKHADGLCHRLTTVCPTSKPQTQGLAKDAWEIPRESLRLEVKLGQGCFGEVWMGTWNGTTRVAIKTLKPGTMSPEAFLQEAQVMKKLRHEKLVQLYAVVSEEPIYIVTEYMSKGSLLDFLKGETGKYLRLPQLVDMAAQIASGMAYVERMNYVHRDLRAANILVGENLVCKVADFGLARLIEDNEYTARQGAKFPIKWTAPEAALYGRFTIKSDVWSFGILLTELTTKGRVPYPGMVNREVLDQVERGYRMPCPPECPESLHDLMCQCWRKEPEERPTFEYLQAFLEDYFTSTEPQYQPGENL
Sequence of Pdgfrβ (P09619 33-1106): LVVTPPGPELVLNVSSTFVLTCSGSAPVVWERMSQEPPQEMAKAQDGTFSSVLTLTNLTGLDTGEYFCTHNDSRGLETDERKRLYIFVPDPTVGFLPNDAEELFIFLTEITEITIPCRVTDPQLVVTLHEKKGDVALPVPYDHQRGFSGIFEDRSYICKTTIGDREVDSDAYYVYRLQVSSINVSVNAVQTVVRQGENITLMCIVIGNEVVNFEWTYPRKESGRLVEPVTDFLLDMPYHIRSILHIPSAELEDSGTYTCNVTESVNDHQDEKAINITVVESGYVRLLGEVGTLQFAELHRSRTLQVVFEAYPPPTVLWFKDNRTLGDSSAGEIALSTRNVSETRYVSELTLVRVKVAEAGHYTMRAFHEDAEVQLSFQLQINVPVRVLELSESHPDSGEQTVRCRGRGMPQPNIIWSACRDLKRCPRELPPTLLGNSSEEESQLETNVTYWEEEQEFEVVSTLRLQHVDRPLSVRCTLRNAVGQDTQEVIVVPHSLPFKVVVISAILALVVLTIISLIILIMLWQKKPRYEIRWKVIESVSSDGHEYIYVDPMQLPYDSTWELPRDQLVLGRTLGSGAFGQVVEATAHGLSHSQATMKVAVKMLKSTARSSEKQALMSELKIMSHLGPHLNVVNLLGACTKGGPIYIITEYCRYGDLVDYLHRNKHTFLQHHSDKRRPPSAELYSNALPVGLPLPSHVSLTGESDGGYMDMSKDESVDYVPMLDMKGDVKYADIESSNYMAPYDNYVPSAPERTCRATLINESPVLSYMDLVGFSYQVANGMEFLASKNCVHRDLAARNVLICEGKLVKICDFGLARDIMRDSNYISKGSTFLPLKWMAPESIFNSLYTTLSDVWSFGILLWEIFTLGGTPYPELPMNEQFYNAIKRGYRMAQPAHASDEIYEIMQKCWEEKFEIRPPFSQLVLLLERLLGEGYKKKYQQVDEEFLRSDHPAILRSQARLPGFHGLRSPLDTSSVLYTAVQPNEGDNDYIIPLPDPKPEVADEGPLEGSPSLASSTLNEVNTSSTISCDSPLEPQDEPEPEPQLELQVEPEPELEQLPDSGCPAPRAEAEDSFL

What is called IC50 is the point on the concentration scale where inhibition reaches its midpoint. Take `Cc1cc(-c2cc(O)ccc2Cl)cc2nnc(Nc3ccc(S(=O)(=O)NCCN4CCCC4)cc3)nc12`: the IC50 on Pdgfrβ is 1.7 nM.
The same measure, in the same setting: to `Cc1cc2nc(Nc3ccc(S(=O)(=O)NCCN4CCCC4)cc3)nnc2cc1-c1cc(O)ccc1Cl` belongs 1.9 nM.
On the same count and under the same terms, to `Cc1cc(-c2cc(O)ccc2Cl)cc2nnc(Nc3ccc(S(=O)(=O)CCCN4CCCC4)cc3)nc12` belongs 2.9 nM; to `Cc1cc(O)cc(C)c1-c1cc(C)c2nc(Nc3ccc(OCCN4CCCC4)cc3)nnc2c1`, 41.1 nM.
In the case of `Cc1cccc(C)c1-c1cc(C)c2nc(Nc3nc(C(=O)NCCN4CCCC4)cs3)nnc2c1` [2-[7-(2,6-dimethyl-phenyl)-5-methyl-benzo[1,2,4]triazin-3-ylamino]-thiazole-4-carboxylic acid (2-pyrrolidin-1-yl-ethyl)-amide], the IC50 at Pdgfrβ was 60 nM.
The same measure, in the same setting: to `Cc1cccc(C)c1-c1cc(C)c2nc(Nc3cccc(S(N)(=O)=O)c3)nnc2c1` [3-[7-(2,6-dimethyl-phenyl)-5-methyl-benzo[1,2,4]triazin-3-ylamino]-benzenesulfonamide] belongs 16.3 nM; to `Cc1cc(-c2cc(O)ccc2Cl)cc2nnc(Nc3cccc(C(=O)NCCN(C)C)c3)nc12` [3-[7-(2-chloro-5-hydroxy-phenyl)-5-methyl-benzo[1,2,4]triazin-3-ylamino]-N-(2-dimethylamino-ethyl)-benzamide], 5.3 nM.
Take `Cc1cc2nc(Nc3ccc(OCCN4CCCC4)cc3)nnc2cc1-c1cccc(O)c1` [3-{6-methyl-3-[4-(2-pyrrolidin-1-yl-ethoxy)-phenylamino]-benzo[1,2,4]triazin-7-yl}-phenol]: on Pdgfrβ, the IC50 is 7.4 nM.
Same read-out and setting: to `COc1cc2nc(Nc3ccc(S(=O)(=O)NCCN4CCCC4)cc3)nnc2cc1-c1ccccc1C` [4-(6-methoxy-7-o-tolyl-benzo[1,2,4]triazin-3-ylamino)-N-(2-pyrrolidin-1-yl-ethyl)-benzenesulfonamide] belongs 39.3 nM.
For `Cc1ccccc1-c1cc2nnc(Nc3ccc(S(=O)(=O)NCCN4CCCC4)cc3)nc2cc1C` [4-(6-methyl-7-o-tolyl-benzo[1,2,4]triazin-3-ylamino)-N-(2-pyrrolidin-1-yl-ethyl)-benzenesulfonamide], the figures for the IC50 at Recombinant human c-Src and at Pdgfrβ were 10.2 nM and 24.3 nM, respectively.
Take `Cc1cc(-c2c(Cl)ccc(O)c2Cl)cc2nnc(Nc3ccc(S(=O)(=O)NCCN4CCCC4)cc3)nc12` [4-[7-(2,6-dichloro-3-hydroxy-phenyl)-5-methyl-benzo[1,2,4]triazin-3-ylamino]-N-(2-pyrrolidin-1-yl-ethyl)-benzenesulfonamide]: the IC50 on Pdgfrβ came out at 8 nM.
Still for that read-out and setting: the same measure for `Cc1cc(-c2cc(O)ccc2Cl)cc2nnc(Nc3ccc(S(=O)(=O)N(C)CCN4CCCC4)cc3)nc12` [4-[7-(2-chloro-5-hydroxy-phenyl)-5-methyl-benzo[1,2,4]triazin-3-ylamino]-N-methyl-N-(2-pyrrolidin-1-yl-ethyl)-benzenesulfonamide]: 3.1 nM; for `Cc1cc(-c2cc(O)ccc2Cl)cc2nnc(Nc3cccc(N(C)C)c3)nc12` [4-chloro-3-[3-(3-dimethylamino-phenylamino)-5-methyl-benzo[1,2,4]triazin-7-yl]-phenol]: 20.8 nM.
Same read-out and setting: the same measure for `Cc1cc(-c2cc(O)ccc2Cl)cc2nnc(Nc3ccc(N4CCOCC4)nc3)nc12` [4-chloro-3-[5-methyl-3-(6-morpholin-4-yl-pyridin-3-ylamino)-benzo[1,2,4]triazin-7-yl]-phenol]: 2.1 nM; for `Cc1cc(-c2cc(O)ccc2Cl)cc2nnc(Nc3cccnc3)nc12` [4-chloro-3-[5-methyl-3-(pyridin-3-ylamino)-benzo[1,2,4]triazin-7-yl]-phenol]: 23.5 nM.
`Cc1cc(-c2cc(O)ccc2Cl)cc2nnc(Nc3ccc(S(=O)(=O)C4CCNCC4)cc3)nc12` [4-chloro-3-{5-methyl-3-[4-(piperidine-4-sulfonyl)-phenylamino]-benzo[1,2,4]triazin-7-yl}-phenol]: the IC50 on Pdgfrβ was 2.8 nM.
On the same count and under the same terms, the same measure for `Cc1cc2nc(Nc3ccc(OCCN4CCCC4)cc3)nnc2cc1-c1cc(O)ccc1Cl` [4-chloro-3-{6-methyl-3-[4-(2-pyrrolidin-1-yl-ethoxy)phenylamino]-benzo[1,2,4]triazin-7-yl}-phenol]: 5.7 nM; for `Cc1cccc(C)c1-c1cc(C)c2nc(Nc3ccc(C(=O)NCCN4CCCC4)o3)nnc2c1` [5-[7-(2,6-dimethyl-phenyl)-5-methyl-benzo[1,2,4]triazin-3-ylamino]-furan-2-carboxylic acid (2-pyrrolidin-1-yl-ethyl)-amide]: 117 nM; for `Cc1cc(-c2cc(O)ccc2Cl)cc2nnc(Nc3ccc(C(=O)NCCN4CCCC4)o3)nc12` [5-[7-(2-chloro-5-hydroxy-phenyl)-5-methyl-benzo[1,2,4]triazin-3-ylamino]-furan-2-carboxylic acid (2-pyrrolidin-1-yl-ethyl)-amide]: 14.4 nM.
As for `CC(=O)Nc1cc(-c2c(C)cccc2C)cc2nnc(Nc3ccc(S(=O)(=O)NCCN4CCCC4)cc3)nc12` [N-{7-(2,6-dimethyl-phenyl)-3-[4-(2-pyrrolidin-1-yl-ethylsulfamoyl)-phenylamino]-benzo[1,2,4]triazin-5-yl}-acetamide], the IC50 at Pdgfrβ is 1850 nM.
Same read-out and setting: the same measure for `Cc1cc(-c2c(Cl)cccc2Cl)cc2nnc(Nc3ccc(OCCN4CCCC4)cc3)nc12` [[7-(2,6-dichloro-phenyl)-5-methyl-benzo[1,2,4]triazin-3-yl]-[4-(2-pyrrolidin-1-yl-ethoxy)-phenyl]-amine]: 15 nM; for `Cc1cccc(C)c1-c1cc(C)c2nc(Nc3ccccc3)nnc2c1` [[7-(2,6-dimethyl-phenyl)-5-methyl-benzo[1,2,4]triazin-3-yl]-phenyl-amine]: 628 nM.
The same measure, in the same setting: to `Cc1cccc(C)c1-c1cc(C)c2nc(Nc3cccc(OCCCN4CCN(C)CC4)c3)nnc2c1` [[7-(2,6-dimethyl-phenyl)-5-methyl-benzo[1,2,4]triazin-3-yl]-{3-[3-(4-methyl-piperazin-1-yl)-propoxy]-phenyl}-amine] belongs 76.3 nM; to `Cc1cccc(C)c1-c1cc(C)c2nc(Nc3ccc(OCCCN4CCN(C)CC4)cc3)nnc2c1` [[7-(2,6-dimethyl-phenyl)-5-methyl-benzo[1,2,4]triazin-3-yl]-{4-[3-(4-methyl-piperazin-1-yl)-propoxy]-phenyl}-amine], 50.3 nM.
On to `Cc1cccc(C)c1-c1ccc2nc(Nc3ccc(OCCN4CCCC4)cc3)nnc2c1` [[7-(2,6-dimethyl-phenyl)-benzo[1,2,4]triazin-3-yl]-[4-(2-pyrrolidin-1-yl-ethoxy)-phenyl]-amine], for which the IC50 on Recombinant human c-Src was 15 nM.
Take `COc1ccc(Cl)c(-c2cc(C)c3nc(Nc4ccc(OCCN5CCCC5)cc4)nnc3c2)c1` [[7-(2-chloro-5-methoxy-phenyl)-5-methyl-benzo[1,2,4]triazin-3-yl]-[4-(2-pyrrolidin-1-yl-ethoxy)-phenyl]-amine]: the IC50 at Recombinant human c-Src was 788 nM.
Still for that read-out and setting: the same measure for `COc1cccc(Cl)c1-c1cc(C)c2nc(Nc3ccc(OCCN4CCCC4)cc3)nnc2c1` [[7-(2-chloro-6-methoxy-phenyl)-5-methyl-benzo[1,2,4]triazin-3-yl]-[4-(2-pyrrolidin-1-yl-ethoxy)-phenyl]-amine]: 505 nM; for `Cc1noc(C)c1-c1cc(C)c2nc(Nc3ccc(OCCN4CCCC4)cc3)nnc2c1` [[7-(3,5-dimethyl-isoxazol-4-yl)-5-methyl-benzo[1,2,4]triazin-3-yl]-[4-(2-pyrrolidin-1-yl-ethoxy)-phenyl]-amine]: 207 nM; for `COc1ccc(Cl)cc1-c1cc(C)c2nc(Nc3ccc(OCCN4CCCC4)cc3)nnc2c1` [[7-(5-chloro-2-methoxy-phenyl)-5-methyl-benzo[1,2,4]triazin-3-yl]-[4-(2-pyrrolidin-1-yl-ethoxy)-phenyl]-amine]: 1200 nM.
`Cc1ccc(F)cc1-c1cc2nnc(Nc3ccc(OCCN4CCCC4)cc3)nc2cc1C` [[7-(5-fluoro-2-methyl-phenyl)-6-methyl-benzo[1,2,4]triazin-3-yl]-[4-(2-pyrrolidin-1-yl-ethoxy)-phenyl]-amine]: the IC50 on Pdgfrβ was 26.1 nM.
`Cc1cc2nc(Nc3ccc(S(=O)(=O)NCCN4CCCC4)cc3)nnc2cc1Br` [[7-Bromo-6-methyl-benzo[1,2,4]triazin-3-ylamino]-N-(2-pyrrolidin-1-yl-ethyl)-benzene-4-sulfonamide]: on Recombinant human c-Src, the IC50 is greater than 10000 nM.
With `Cc1cc(-c2cc(O)ccc2Cl)cc2nnc(Nc3ccc(C(=O)N4CCNCC4)cc3)nc12` [{4-[7-(2-chloro-5-hydroxy-phenyl)-5-methyl-benzo[1,2,4]triazin-3-ylamino]-phenyl}-piperazin-1-yl-methanone], at Pdgfrβ, the IC50 amounted to 1.2 nM.
As to `Cc1cc2nc(Nc3ccc(C(=O)N4CCN(C)CC4)cc3)nnc2cc1-c1cc(O)ccc1Cl` [{4-[7-(2-chloro-5-hydroxy-phenyl)-6-methyl-benzo[1,2,4]triazin-3-ylamino]-phenyl}-(4-methyl-piperazin-1-yl)-methanone], the IC50 at Pdgfrβ amounted to 3.7 nM.
On the same count and under the same terms, the same measure for `COc1ccc(Cl)c(-c2cc3nnc(Nc4ccc(C(=O)N5CCN(C)CC5)cc4)nc3cc2C)c1` [{4-[7-(2-chloro-5-methoxy-phenyl)-6-methyl-benzo[1,2,4]triazin-3-ylamino]-phenyl}-(4-methyl-piperazin-1-yl)-methanone]: 3.5 nM; for `Cc1ccc(Cl)cc1-c1cc2nnc(Nc3ccc(C(=O)N4CCN(C)CC4)cc3)nc2cc1C` [{4-[7-(5-chloro-2-methyl-phenyl)-6-methyl-benzo[1,2,4]triazin-3-ylamino]-phenyl}-(4-methyl-piperazin-1-yl)-methanone]: 6 nM.
